Results taken from patent US20250195518A1, “INDAZOLE COMPOUND AND PHARMACEUTICAL USE THEREOF” (Japan Tobacco Inc., priority 2022, published 2025).

Assays:
human H-PGDS [1] = target: T1, human H-PGDS (Homo sapiens (Human), UniProt O60760); assay: Human H-PGDS binding inhibitory activity (AlphaLISA antagonistic assay); conditions: His-tagged human H-PGDS 0.3 nmol/L, biotinylated H-PGDS inhibitor 45 nmol/L
Experimental: Experimental Example 1: Measurement of Human H-PGDS Binding Inhibitory Activity
The H-PGDS binding inhibitory activity of the test compound was measured by AlphaLISA antagonistic assay. A specific protocol is as follows.
In an AlphaPlate-384 Shallow well plate (Cat. 6008350, PerkinElmer) were added and mixed 240 nL/well of DMSO solution as a compound solution or a solvent control, 3 µL/well (final concentration: 45 nmol/L) of biotinylated H-PGDS inhibitor (see below for the production method) diluted with […] DMSO-containing Assay Buffer (50 mM HEPES-NaOH (pH 7.5), 2 mM GSH, 150 mM NaCl, 2 mM MgCl2, 0.005% Surfactant P20), and 2 μL/well (final concentration: 0.3 nmol/L) of His-tagged human H-PGDS (Cat. ATGP1557, ATgen) diluted with Assay Buffer. As a blank, 2 μL/well of Assay Buffer was added instead of His-tagged human H-PGDS. This plate was allowed to stand at room temperature for 60 min, and Nickel Chelate AlphaLISA Acceptor Beads (Cat. AL108C, Perkin Elmer) at 5 μL/well (final concentration: 20 μg/mL) were added and mixed. After allowing to stand at room temperature for 30 min under shading, AlphaScreen Streptavidin donor beads (Cat. 6760002S, Perkin Elmer) were added at 5 μL/well (final concentration: 30 μg/mL) and mixed. After allowing to stand at room temperature for 60 min under shading, AlphaLISA signals (excitation wavelength: 680 nm, measurement wavelength: 615 nm) were measured using Enspire (Perkin Elmer).
The H-PGDS binding inhibitory activity (inhibitory rate) of each test compound was calculated as follows, and the IC50 value was calculated from the inhibitory rate at two concentrations sandwiching 50%.

human H-PGDS [2] = target: T1, human H-PGDS; assay: Human H-PGDS inhibitory activity (enzyme reaction with PGH2, PGD2 ELISA); format: biochemical; conditions: human recombinant H-PGDS 1.6 μg/mL, PGH2 50 μmol/L
Experimental: Using the human H-PGDS expression plasmid DNA (pET28b/hH-PGDS) as a template, PCR (Polymerase Chain Reaction) was performed to amplify a DNA fragment containing human H-PGDS with a NotI recognition cleavage sequence immediately before the translation initiation codon and a BamHI recognition cleavage sequence immediately below the translation end codon. The purified DNA fragment was fused to pET15b (manufactured by Merck KGaA, model number 69661) digested with NotI and BamHI, by using In-Fusion HD Cloning Kit (manufactured by Takara Bio Inc., model number 639649). […] The base sequence of human H-PGDS cloned into the vector was determined by the Dye Terminator method using BigDye Terminator v3.1 Cycle Sequencing Kit (manufactured by Applied Biosystems, model number 4337456). The determined sequence was identical to the sequence of the protein translation region of human H-PGDS (Accession number su NM_014485.2) registered in the NCBI Reference Database. […]
The protein concentration of the human H-PGDS purified fraction was measured with Pierce 660 nm Protein Assay Reagent (manufactured by Thermo Fisher Scientific Inc., model number 22660). […] Human H-PGDS was detected by Western blotting using a rabbit anti-H-PGDS polyclonal antibody (manufactured by LifeSpan BioSciences, Inc, model number LS-B6886). […]

mdx mice = conditions: Non-patent Document 7; cited from earlier work

T1 sequence (O60760 whole entry): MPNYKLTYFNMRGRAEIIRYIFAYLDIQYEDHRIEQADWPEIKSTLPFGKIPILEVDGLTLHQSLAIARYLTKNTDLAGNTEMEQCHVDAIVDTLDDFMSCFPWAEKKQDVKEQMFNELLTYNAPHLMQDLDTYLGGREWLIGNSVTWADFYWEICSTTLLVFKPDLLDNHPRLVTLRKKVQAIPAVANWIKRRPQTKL

| IC50 (human H-PGDS [1]) [µM] | Compound | also measured |
| --- | --- | --- |
| 0.007 | CC(C)(O)C12CC(NC(=O)c3cnc(-n4nc(C(F)F)c5ccccc54)nc3)(C1)C2 [Example 255] | – |
| 0.071 | Cc1nn(-c2ccc(C(=O)N[C@H]3CC[C@H](O)CC3)cn2)c2cc(F)ccc12 [Example 39] | – |
| 0.003 | Cc1nn(-c2ncc(C(=O)N[C@H]3CC[C@H](C(C)(C)O)CC3)cn2)c2cc(F)ccc12 [Example 1, 2-(6-fluoro-3-methyl-1H-indazol-1-yl)-N-(trans-4-(2-hydroxypropan-2-yl)cyclohexyl)pyrimidine-5-carboxamide] | – |
| – | C[C@@H](CC(=O)O)C12CCC(NC(=O)N3CCC(c4ncc(F)c5[nH]cc(F)c45)CC3)(CC1)CC2 (single isomer, unassigned) [enantiomer A] | IC50 (human H-PGDS [2]): 0.005 µM |
| 0.005 | Cc1nn(-c2ncc(C(=O)N[C@H]3CC[C@H](OCC(C)(C)O)CC3)cn2)c2ccccc12 [Example 4, N-(trans-4-(2-hydroxy-2-methylpropoxy)cyclohexyl)-2-(3-methyl-1H-indazol-1-yl)pyrimidine-5-carboxamide] | – |
| 0.041 | Cc1nn(-c2ncc(C(=O)N[C@H]3CC[C@H](O)CC3)cc2F)c2ccccc12 [Example 54] | – |
| 0.014 | Cc1nc([C@H]2CC[C@H](NC(=O)c3cnc(-n4nc(C)c5ccc(F)cc54)nc3)CC2)no1 [Example 150] | – |
| 0.007 | Cc1nn(-c2ccc(C(=O)N[C@H]3CC[C@H](C(C)(C)O)CC3)cn2)c2cc(F)ccc12 [Example 40] | – |
| 0.003 | CS(=O)(=O)CCCO[C@H]1CC[C@H](NC(=O)c2cnc(-n3nc(C(F)F)c4ccccc43)nc2)CC1 [Example 6, 2-(3-(difluoromethyl)-1H-indazol-1-yl)-N-(trans-4-(3-(methylsulfonyl)propoxy)cyclohexyl)pyrimidine-5-carboxamide] | – |
| 0.01 | CC(C)(O)[C@H]1CC[C@H](NC(=O)c2cnc(-n3nc(C(F)(F)F)c4ccccc43)nc2)CC1 [Example 46] | – |
| 0.2 | Cc1nn(-c2ncc(C(=O)N[C@H]3CC[C@H](O)CC3)cn2)c2cccc(F)c12 [Example 42] | – |
| 0.003 | CC(C)(O)[C@H]1CC[C@H](NC(=O)c2cnc(-n3nc(Cl)c4ccccc43)nc2)CC1 [Example 24] | – |
| 0.014 | CC(C)(O)C(=O)N1CCC(NC(=O)c2cnc(-n3nc(C(F)F)c4ccc(F)cc43)nc2)CC1 [Example 254] | – |
| 0.011 | Cc1nn(-c2ncc(C(=O)NC34CC(C(C)(C)O)(C3)C4)cn2)c2cc(F)ccc12 [Example 7, 2-(6-fluoro-3-methyl-1H-indazol-1-yl)-N-(3-(2-hydroxypropan-2-yl)bicyclo[1.1.1]pentan-1-yl)pyrimidine-5-carboxamide] | – |
| 0.171 | Cc1nn(-c2ccc(C(=O)NC3CCCCC3)cc2)c2ccccc12 [Example 11] | – |
| 0.225 | COc1nn(-c2ncc(C(=O)N[C@H]3CC[C@H](O)CC3)cn2)c2ccccc12 [Example 27] | – |
| 0.374 | Cc1nn(-c2ccc(C(=O)N[C@H]3CC[C@H](O)CC3)cn2)c2c(F)cccc12 [Example 41] | – |
| 0.144 | Cc1nn(-c2ncc(C(=O)N[C@H]3CC[C@H](C(C)(C)O)CC3)cn2)c2c(C#N)cccc12 [Example 95] | – |
| – | C[C@H](CC(=O)O)C12CCC(NC(=O)N3CCC(c4ncc(F)c5[nH]cc(F)c45)CC3)(CC1)CC2 (single isomer, unassigned) [enantiomer B] | IC50 (human H-PGDS [2]): 0.006 µM |
| 0.074 | Cc1nn(-c2ccc(C(=O)N[C@H]3CC[C@H](C(C)(C)O)CC3)cn2)c2cccc(F)c12 [Example 50] | – |
| 0.045 | Cc1nn(-c2ncc(C(=O)N[C@H]3CC[C@H](O)CC3)cn2)c2ccccc12 [Example 18] | – |
| 0.027 | CC(C)(O)[C@H]1CC[C@H](NC(=O)c2ccc(-n3nc(Cl)c4ccccc43)nc2)CC1 [Example 17] | – |
| 0.014 | Cc1nn(-c2ncc(C(=O)N[C@H]3CC[C@@](C)(O)CC3)cn2)c2cc(F)ccc12 [Example 204] | – |
| 0.021 | Cc1nn(-c2ncc(C(=O)N[C@H]3CC[C@H](CC(C)(C)O)CC3)cn2)c2cnccc12 [Example 3, N-(Trans-4-(2-hydroxy-2-methylpropyl)cyclohexyl)-2-(3-methyl-1H-pyrazolo[3,4-c]pyridin-1-yl)pyrimidine-5-carboxamide] | – |
| – | c1ccc(C(OC2CCN(CCCc3nn[nH]n3)CC2)c2ccccc2)cc1 [HQL-79] | muscle strength (mdx mice): increases muscle strength; myonecrosis (mdx mice): suppresses myonecrosis |
| 0.017 | Cc1nn(-c2ccc(C(=O)N[C@H]3CC[C@H](OC4CCS(=O)(=O)CC4)CC3)cn2)c2cc(F)ccc12 [Example 80] | – |
| 0.013 | CC(C)(O)[C@H]1CC[C@H](NC(=O)c2cnc(-n3nc(C(F)F)c4ccncc43)nc2)CC1 [Example 9, 2-(3-(difluoromethyl)-1H-pyrazolo[3,4-c]pyridin-1-yl)-N-(trans-4-(2-hydroxypropan-2-yl)cyclohexyl)pyrimidine-5-carboxamide] | – |

| Compound | IC50 (human H-PGDS [1]) [µM] | also measured |
| --- | --- | --- |
| Cc1nn(-c2ccc(C(=O)N[C@H]3CC[C@H](C(C)(C)O)CC3)cn2)c2ccccc12 [Example 15] | 0.012 | – |
